Measured values reported in patent publication US4174402A, “Method for the prophylaxis of SRS-A-induced symptoms” (priority 1978, dated 1979).
Like-named read-outs stand apart in the source and are kept apart here.

Tests used:
acetylcholine [1] = test: Test Procedure 7: acetylcholine-induced bronchoconstriction in anesthetized guinea pigs; assay type: in vivo, guinea pig; details: 100 mg/kg p.o.
Procedure: Guinea pigs, weighing 250-350 g were anesthetized with 1.5 g/kg i.p. of urethane and prepared for measurements of resistance to pulmonary inflation using a slightly modified Konzett-Rossler preparation (see Test Procedure 2). Histamine phosphate (5 μg/kg as base) was injected four times at 5 minute intervals in order to ascertain that the maximum bronchoconstrictor responsiveness has been obtained. Acetylcholine was injected intravenously at […] 5 minutes following the last injection of histamine and the increase in intratracheal pressure was recorded. Compound b or aminophylline (100 mg/kg p.o.) or the control vehicle were administered to five guinea pigs each, 1 hour before the injection of acetylcholine (1/2 hour before the anesthesia).

serotonin [2] = test: Test Procedure 6: serotonin-induced bronchoconstriction in anesthetized guinea pigs; assay type: in vivo, guinea pig; details: iv 5.0 mg/kg; P 0.01
Procedure: Guinea pigs, weighing 275-340 g, were anesthetized and prepared for measurements of resistance to pulmonary inflation using a slightly modified Konzett-Rossler method (see Test Procedure 2). All guinea pigs received 0.1 mg/kg of propranolol iv and 5 minutes later, 50 mcg/kg of serotonin (creatinine complex) iv. Compound b or cyproheptadine were administered iv just before the injection of propranolol at 50 or 5 mg/kg, respectively. Compound b was prepared as a 5% solution in 5% N-methylglucamine and cyproheptadine as a 0.25% aqueous solution.

bradykinin [3] = test system: bradykinin
Procedure: Antagonism of bradykinin-induced bronchoconstriction in guinea pigs was determined by measuring increases in resistance to artificial pulmonary inflation (Konzett-Rossler preparation). […] Due to large variations in bronchoconstricting responses among individual guinea pigs, each guinea pig serves as its own control and was challenged with bradykinin twice. The second response to bradykinin was expressed as percent of the first response to bradykinin. […] All guinea pigs having a first bradykinin response of less than 12 mm Hg were rejected as poor responders. […] In order to augment the bronchoconstrictor response, each guinea pig received 100 mcg propranolol/kg, iv, 5 minutes before the first injection of bradykinin (30 mcg/kg, iv). […] Five minutes after the injection of a test compound the guinea pigs received the second injection of bradykinin and the peak of the response determined. The effects of both test compounds were expressed as % inhibition of bradykinin-induced increase in bronchial resistance to forced inflation, as compared to the levels of bronchial resistance following iv administration of their respective solvent controls.

SRS-A [4] = test: Test Procedure 1: antagonism of SRS-A-induced bronchoconstriction in unanesthetized guinea pigs; assay type: in vivo, guinea pig; details: for ED50: Cavia porcellus, po, read-out: AED50; for ED50 / Potency (Phenylbutazone = 1) (95% confidence limits): 1 hour before SRS-A; for Potency (Phenylbutazone = 1) (95% confidence limits): p.o.
Procedure: The test compounds were administered orally to four guinea pigs/group 1 hour before the SRS-A challenge. The test compounds were prepared as suspensions in 1% gum tragacanth. Bronchoconstriction was graded 1+ to 3+ according to severity (1+ denoted restlessness and slight thoracic dyspnea, 2+ denoted moderate thoracic dyspnea and 3+ denoted convulsive dyspnea, regardless of whether the guinea pig died of asphyxiation or recovered).

SRS-A [5] = test: Test Procedure 2: inhibition of SRS-A-induced bronchoconstriction in anesthetized guinea pigs (Konzett-Rossler); assay type: in vivo, guinea pig; details: for inhibition of SRS-A-induced increases in resistance to inflation: intravenous
Text: SRS-A was harvested as described in Test Procedure 1 described hereinabove. A slightly modified Konzett-Rossler preparation [Arch. […] Guinea pigs weighing 350 to 450 g were anesthetized ip with 1.5 g/kg urethane. The jugular vein and trachea were cannulated and the guinea pigs were artificially respired at a rate of 40 strokes/minute. […] A side arm of the inflationary air cannula was connected to a pressure transducer and resistance to pulmonary inflation continuously recorded. […] Studies with SRS-A commenced after each guinea pig had attained maximum bronchoconstrictor response to histamine. […] The effects of the test compounds were studied by measuring SRS-A-induced bronchoconstriction side-by-side in two guinea pigs, one medicated and one control. Subsequent medicated/control pairs were alternated on two respiratory pumps. In this manner, the gradual decomposition of SRS-A and differences between the two pump/recorder systems, if any, were controlled. The dose (volume) of each sample of SRS-A was adjusted in each pair to keep the peaks of increases in bronchial resistance in control guinea pigs within 13 to 40 mmHg. Bronchoconstriction following injection of SRS-A was measured two ways; as the peak increase in resistance to inflation and, in view of the occasional irregular bronchoconstriction response curves following injection of SRS-A, as the sum of increases in bronchoconstriction over 10 minutes (pressure/time units). Pressure/time units were calculated by measuring the area under the curve of inflationary resistance where ordinates were set at 10 mm of pen excursion/10 mm pressure Hg and the abscissas were set at 15 mm of paper travel/minute. […] SRS-A-induced bronchoconstriction (increase in resistance) was calculated as the area under the curve and over the normal base line of resistance to inflation. […] The effects of the test compounds upon SRS-A-induced bronchoconstriction were expressed as ratios of the peaks and as ratios of the pressure/time units between the paired medicated and control guinea pigs. The consistency of paired responses to SRS-A in nonmedicated guinea pigs was determined in the same manner, by alternating the ratios of the results of guinea pigs on pumps one and two. […] SRS-A was injected 5 minutes after these latter injections. Compound b was prepared as a solution in 2% N-methylglucamine and used within 3 hours. […] Control guinea pigs received injections of the respective solvent vehicles. In order to compare the activities of compound b following iv and po routes of administration, compound b was also administered orally. […] Control guinea pigs received 2% N-methylglucamine. Fifteen minutes later, the guinea pigs were anesthetized, cannulated, and prepared for injections of SRS-A as described. The procedure was timed so that SRS-A was injected 1 hour after the oral administration of compound b. In a separate experiment, using the same methodology, the duration anti-SRS-A activity of compound b was determined after oral administration. Compound b was finely ground in a tissue homogenizer and prepared as a suspension in 0.5% gum tragacanth. A dose of 10 mg/kg was administered and anti-SRS-A effect studied at 1, 4 and 7 hr postmedication. The ratios of peak increases in intratracheal pressure between paired medicated and control guinea pigs was used to calculate percent inhibition.

SRS-A [6] = test: Test Procedure 3: SRS-A-induced increase in resistance to pulmonary inflation in anesthetized cats; assay type: in vivo, cat
Procedure: The trachea of each cat was cannulated, and the cats were artificially respired at 15 strokes/minute with a stroke volume of 22 ml/kg. A side-arm of the intratracheal cannula was connected to a Statham transducer, and the intratracheal pressure was recorded continuously on a polygraph. One femoral vein was cannulated in all cats receiving intravenous administration of drugs. In addition, most of the cats were cannulated through the femoral artery; this cannula was attached to another Statham transducer, and the blood pressure of these cats recorded. All cats received 1.0 mg/kg of propranolol and 0.2 mg/kg of thenyldiamine intravenously 3 minutes before iv injection of SRS-A. SRS-A was obtained from rat peritoneal cavities as described previously in Test Procedure 1. Each pool of rat ip fluid containing SRS-A was dose-ranged and a dose selected that was estimated to cause an average increase in intrapulmonary resistance to inflation in control cats by 4-6 mmHg. Test dose volumes ranged from 1.0 to 2.0 ml/kg, iv. […] Both test compounds and the sodium hydroxide vehicle were injected iv 5 minutes before the injections of SRS-A (2 minutes before the injection of propranolol and thenyldiamine).

SRS-A [7] = test: as above; assay type: in vivo, cat; remark: listed apart in the source
SRS-A [8] = details: guinea pigs; cited from earlier work
bradykinin [9] = details: guinea pigs; cited from earlier work
serotonin [10] = details: guinea pig, in vivo; cited from earlier work
acetylcholine [11] = details: guinea pig, in vivo; cited from earlier work

Compound: Cn1c(=O)c2[nH]cnc2n(C)c1=O [Aminophylline, aminophylline, reference compound]
- % Inhibition (acetylcholine [1]): 70%
- Peak Increase in Intracheal Pressure, mm Hg (acetylcholine [1]): 7 ± 1 mm Hg
- effect against acetylcholine-induced bronchoconstriction (acetylcholine [1]): inhibition of acetylcholine responses

Compound: CN1CCC(=C2c3ccccc3C=Cc3ccccc32)CC1 [Cyproheptadine, cyproheptadine, reference compound]
- Increase in Resistance (mm Hg) (serotonin [2]): 5 ± 1 mm Hg
- Inhibition % (serotonin [2]): 89%

Compound: CCCCC1C(=O)N(c2ccccc2)N(c2ccccc2)C1=O [Na Phenylbutazone]
- % Inhibition (bradykinin [3]; iv 1.0 mg/kg): 20%
- Average Increase In Bronchial Resistance (2nd Response in % of 1st Response ± S.E.) (bradykinin [3]; iv 1.0 mg/kg): 64 ± 12%
- % Inhibition (bradykinin [3]; iv 3.3 mg/kg): 50%
- Average Increase In Bronchial Resistance (2nd Response in % of 1st Response ± S.E.) (bradykinin [3]; iv 3.3 mg/kg): 40 ± 9%
- % Inhibition (bradykinin [3]; iv 10.0 mg/kg): 56%
- Average Increase In Bronchial Resistance (2nd Response in % of 1st Response ± S.E.) (bradykinin [3]; iv 10.0 mg/kg): 35 ± 11%
- % Inhibition (bradykinin [3]; iv 33.0 mg/kg): 50%
- Average Increase In Bronchial Resistance (2nd Response in % of 1st Response ± S.E.) (bradykinin [3]; iv 33.0 mg/kg): 40 ± 7%

Compound: CCCCC1C(=O)N(c2ccccc2)N(c2ccccc2)C1=O [Phenylbutazone, phenylbutazone, reference compound]
- Incidence of Severe Bronchospasms, % (SRS-A [4]; 1.6 mg/kg p.o.): 62%
- Incidence of Severe Bronchospasms, No. Bronchosp./No. Tested (SRS-A [4]; 1.6 mg/kg p.o.): 47/77
- Incidence of Severe Bronchospasms, % (SRS-A [4]; 6.2 mg/kg p.o.): 34%
- Incidence of Severe Bronchospasms, No. Bronchosp./No. Tested (SRS-A [4]; 6.2 mg/kg p.o.): 29/86
- Incidence of Severe Bronchospasms, % (SRS-A [4]; 25 mg/kg p.o.): 15%
- Incidence of Severe Bronchospasms, No. Bronchosp./No. Tested (SRS-A [4]; 25 mg/kg p.o.): 21/147
- Incidence of Severe Bronchospasms, % (SRS-A [4]; 100 mg/kg p.o.): 4%
- Incidence of Severe Bronchospasms, No. Bronchosp./No. Tested (SRS-A [4]; 100 mg/kg p.o.): 2/46
- % Inhibition (peak increase in resistance) (SRS-A [5]; i.v. 1.0 mg/kg): 0%
- % Inhibition (sum of increase in resistance over 10 min) (SRS-A [5]; i.v. 1.0 mg/kg): 0%
- % Inhibition (peak increase in resistance) (SRS-A [5]; i.v. 3.3 mg/kg): 59%
- % Inhibition (sum of increase in resistance over 10 min) (SRS-A [5]; i.v. 3.3 mg/kg): 56%
- % Inhibition (peak increase in resistance) (SRS-A [5]; i.v. 10 mg/kg): 72%
- % Inhibition (sum of increase in resistance over 10 min) (SRS-A [5]; i.v. 10 mg/kg): 81%
- % Inhibition (peak increase in resistance) (SRS-A [5]; i.v. 33 mg/kg): 89%
- % Inhibition (sum of increase in resistance over 10 min) (SRS-A [5]; i.v. 33 mg/kg): 90%
- inhibition of SRS-A-induced increases in resistance to inflation (SRS-A [5]): inhibited SRS-A-induced increases in resistance to inflation in a dose-related manner
- inhibition of SRS-A-induced increases in resistance to inflation (SRS-A [5]; 10 and 33 mg/kg): nearly complete inhibition
- % Inhibition (SRS-A [6]; intravenous 10.1 mg/kg): 21%
- Max. Increase in Resistance to Pulm. Inflation, mm Hg ± S.E. (SRS-A [6]; intravenous 10.1 mg/kg): 4.7 ± 1.5 mm Hg
- inhibition of SRS-A-induced increase in resistance to inflation (SRS-A [6]; intravenous 33 mg/kg): complete inhibition
- % Inhibition (SRS-A [6]; intravenous 33.0 mg/kg): 100%
- inhibition of bradykinin-induced bronchoconstriction (bradykinin [3]; iv 33 mg/kg, remaining five guinea pigs): further dose-related inhibition
- inhibition of bradykinin-induced increase in bronchial resistance (bradykinin [3]; iv 3.3 and 10 mg/kg): significantly inhibited
- ED50 (SRS-A [7]; Felis catus, 5 min, intravenous, read-out: iv AED50): 16 mg/kg
- Max. Increase in Resistance to Pulm. Inflation, mm Hg ± S.E. (SRS-A [7]; intravenous 33.0 mg/kg): 0 mm Hg
- % Inhibition (SRS-A [7]; oral 10.0 mg/kg): 25%
- Max. Increase in Resistance to Pulm. Inflation, mm Hg ± S.E. (SRS-A [7]; oral 10.0 mg/kg): 3.0 ± 0.9 mm Hg
- % Inhibition (SRS-A [7]; oral 33.0 mg/kg): 98%
- Max. Increase in Resistance to Pulm. Inflation, mm Hg ± S.E. (SRS-A [7]; oral 33.0 mg/kg): 0.1 ± 0.1 mm Hg
- effect on SRS-A-induced bronchoconstriction (SRS-A [8]): inhibit
- effect on bradykinin-induced bronchoconstriction (bradykinin [9]): inhibit
- effect on serotonin-induced bronchoconstriction (serotonin [10]): ineffective
- effect on acetylcholine-induced bronchoconstriction (acetylcholine [11]): ineffective

Compound: O=C(O)C1CCc2c(c3ccccc3n2C(=O)c2ccccc2)C1 (stereo not shown) [a, 9-benzoyl-1,2,3,4-tetrahydrocarbazole-3-carboxylic acid]
- ED50 (SRS-A [4]): 10 mg/kg
- Potency (Phenylbutazone = 1) (95% confidence limits) (SRS-A [4]): 1.1 (0.53.8)

Compound: CC(=O)Oc1ccccc1C(=O)O [aspirin]
- effect on SRS-A-induced bronchoconstriction (SRS-A [8]): inhibit
- effect on bradykinin-induced bronchoconstriction (bradykinin [9]): inhibit
- effect on serotonin-induced bronchoconstriction (serotonin [10]): ineffective
- effect on acetylcholine-induced bronchoconstriction (acetylcholine [11]): ineffective

Compound: O=C(O)C1CCCc2c1c1ccccc1n2C(=O)c1ccccc1 (stereo not shown) [c, 9-benzoyl-1,2,3,4-tetrahydrocarbazole-4-carboxylic acid]
- ED50 (SRS-A [4]): 0.3 mg/kg
- Potency (Phenylbutazone = 1) (95% confidence limits) (SRS-A [4]): 16 (6.9-37)

Compound: Cc1ccc(C(=O)n2c3c(c4ccccc42)C(C(=O)O)CCC3)cc1 (stereo not shown) [d, 9-(4-toluoyl)-1,2,3,4-tetrahydrocarbazole-4-carboxylic acid]
- ED50 (SRS-A [4]): 5 mg/kg
- Potency (Phenylbutazone = 1) (95% confidence limits) (SRS-A [4]): 1.7 (0.6-6.8)

Compound: COc1ccc2c(c1)c1c(n2C(=O)c2ccccc2)CCCC1C(=O)O (stereo not shown) [e, 9-benzoyl-6-methoxy-1,2,3,4-tetrahydrocarbazole-4-carboxylic acid]
- ED50 (SRS-A [4]): 1 mg/kg
- Potency (Phenylbutazone = 1) (95% confidence limits) (SRS-A [4]): 18 (5.0-86)

Compound: Cc1ccc2c(c1)c1c(n2C(=O)c2ccccc2)CCCC1C(=O)O (stereo not shown) [f, 9-benzoyl-6-methyl-1,2,3,4-tetrahydrocarbazole-4-carboxylic acid]
- ED50 (SRS-A [4]): 1.7 mg/kg
- Potency (Phenylbutazone = 1) (95% confidence limits) (SRS-A [4]): 6.7 (3.2-16)
